Experimental data published in patent publication US6444615B1, “Herbicidal imidazolidinetrione and thioxo-imidazolidinediones” (Dow AgroSciences LLC, priority 2000, dated 2002).

Assays:
Assay type in all cases: in vivo
Conditions in all cases: 1200 g/ha, scale of 0-100, 0 no activity, 100 total control, about two or four weeks after application
[1] = system: Velvetleaf (Abutilon theophrasti); assay: Herbicidal post-emergence test, Velvetleaf
Protocol: (§1) Listed below, a typical planting design for the test, consisting of four monocot weeds, four dicot weeds and one sedge weed. [table] For each compound, evaluation tests were carried out according to the following procedures: For preemergence tests, immediately after planting, the test compound was sprayed directly onto the soil surface. The flats or pots were placed in the greenhouse and then watered. For postemergence tests, seeds were allowed to germinate and grow for 10 to 21 days before application. The test plants were selected for uniformity, size and stage of development. The test plants were then treated with the test compound, returned to the greenhouse and watered. Untreated plants were used as a comparison. The compound to be evaluated was dissolved in an appropriate solvent, usually acetone, or a formulation of the evaluated compounds as described above, was added to the water, and sprayed over the flats or pots using a carrier volume equivalent to 187 or 468 liters per hectare to give a rate of application in grams per hectare (g/ha). About two or four weeks after application of the test compounds, the state of the plant was observed. Each species was evaluated on a scale of 0-100 in which 0 equals no activity and 100 equals total control.

[2] = system: Perennial Ryegrass (Lolium perenne); assay: Herbicidal pre-emergence test, Perennial Ryegrass
Protocol: as §1

[3] = system: Foxtail, (green) (Setaria viridis); assay: Herbicidal pre-emergence test, Foxtail (green)
Protocol: as §1

[4] = system: Foxtail, (green) (Setaria viridis); assay: Herbicidal post-emergence test, Foxtail (green)
Protocol: as §1

[5] = system: Smartweed, (pale) (Polygonum lapathifolium); assay: Herbicidal post-emergence test, Smartweed (pale)
Protocol: as §1

[6] = system: Nutsedge, (yellow) (Cyperus esculentus); assay: Herbicidal pre-emergence test, Nutsedge (yellow)
Protocol: as §1

[7] = system: Barnyardgrass (Echinochloa crusgalli); assay: Herbicidal post-emergence test, Barnyardgrass
Protocol: as §1

[8] = system: Nightshade, (black) (Solanum nigrum); assay: Herbicidal post-emergence test, Nightshade (black)
Protocol: as §1

[9] = system: Crabgrass (large) (Digitaria sanguinalis); assay: Herbicidal pre-emergence test, Crabgrass (large)
Protocol: as §1

[10] = system: Nightshade, (black) (Solanum nigrum); assay: Herbicidal pre-emergence test, Nightshade (black)
Protocol: as §1

[11] = system: Barnyardgrass (Echinochloa crusgalli); assay: Herbicidal pre-emergence test, Barnyardgrass
Protocol: as §1

[12] = system: Perennial Ryegrass (Lolium perenne); assay: Herbicidal post-emergence test, Perennial Ryegrass
Protocol: as §1

[13] = system: Velvetleaf (Abutilon theophrasti); assay: Herbicidal pre-emergence test, Velvetleaf
Protocol: as §1

[14] = system: Nutsedge, (yellow) (Cyperus esculentus); assay: Herbicidal post-emergence test, Nutsedge (yellow)
Protocol: as §1

[15] = system: Hairy Beggarticks (Bidens pilosa); assay: Herbicidal post-emergence test, Hairy Beggarticks
Protocol: as §1

[16] = system: Hairy Beggarticks (Bidens pilosa); assay: Herbicidal pre-emergence test, Hairy Beggarticks
Protocol: as §1

[17] = system: Smartweed, (pale) (Polygonum lapathifolium); assay: Herbicidal pre-emergence test, Smartweed (pale)
Protocol: as §1

[18] = system: Crabgrass (large) (Digitaria sanguinalis); assay: Herbicidal post-emergence test, Crabgrass (large)
Protocol: as §1

Compound	Herbicidal Activity VEL (post-emergence) [1]	Herbicidal Activity RYE (pre-emergence) [2]	Herbicidal Activity FOX (pre-emergence) [3]	Herbicidal Activity FOX (post-emergence) [4]	Herbicidal Activity SMT (post-emergence) [5]	Herbicidal Activity NUT (pre-emergence) [6]	Herbicidal Activity BYG (post-emergence) [7]	Herbicidal Activity NS (post-emergence) [8]	Herbicidal Activity CRB (pre-emergence) [9]	Herbicidal Activity NS (pre-emergence) [10]	Herbicidal Activity BYG (pre-emergence) [11]	Herbicidal Activity RYE (post-emergence) [12]	Herbicidal Activity VEL (pre-emergence) [13]	Herbicidal Activity NUT (post-emergence) [14]	Herbicidal Activity BID (post-emergence) [15]	Herbicidal Activity BID (pre-emergence) [16]	Herbicidal Activity SMT (pre-emergence) [17]	Herbicidal Activity CRB (post-emergence) [18]
C#CCOc1cc(N2C(=O)C(=O)N(CCCC)C2=O)c(F)cc1Cl [Compound 14]	100	0/0	0	40	60	0/0	30	100	0/0	0	0	0/0	0	0/0	95	0	0	0/0
C=CCOc1cc(N2C(=O)C(=O)N(C)C2=O)c(F)cc1Cl [Compound 15]	90	0/0	0	30	80	0/0	30	85	0	0	0	0/0	0	0/0	85	0	0	30
C=CCOc1cc(N2C(=O)C(=O)N(CCCC)C2=O)c(F)cc1Cl [Compound 16]	100	0/0	0	60	80	0/0	0/0	100	0/0	0	0/0	0/0	0	0/0	95	0	0	0/0
